Measurements taken from US12507721B2, “Ready-to-use parenteral nutrition formulation” (BAXTER INTERNATIONAL INC., priority 2021, dated 2025).
Marks after values point to notes of the source that are not given here.

Legend:
Format in all cases: physicochemical
[1] = Vitamin B12 stability in mixed micelle solutions; details: both mixed micelle solutions (Vit A, Vit B); steam or water spray sterilization
Method: For testing the stability of vitamin B12 in formulation as they are typically used in parenteral nutrition, a 35% glucose solution, a 14.2% amino acid formulation such as found, for example, in Olimel N9E (Baxter), and a 20% lipid emulsion such as found in Clinoleic 20% (Baxter) were supplemented with different vitamin combinations which always included vitamin B12. KCl was added into the glucose solution to understand if it has an effect on the stability of vitamin B12. Vitamin B1 was introduced as thiamin HCl. Ascorbyl palmitate was added to the lipid emulsion formulation as a stabilizing agent due to its antioxidant properties. In addition, two separate micellar solutions (“Vit A” and “Vit B”, see Table 9) comprising certain vitamins to be assessed with regard to degradation (B3, B6, B8, B9, B12, C) but formulated with different excipients as micellization agents were tested for vitamin B12 stability. Vit A consisted of a solution of mixed micelles with ascorbyl palmitate as a potential stability enhancer. […]
Accordingly, mixed micelles solutions having smaller volumes (25 ml or 50 ml, see Table 9) were produced according to known methods. […] The mixed micelles solutions from Table 5 were then sterilized according to Cycles 1, 2, 3 and 4 as described before and the degradation of vitamin B12 during sterilization and subsequent storage was monitored as described before.

[2] = Vitamin stability in 35% glucose solution during sterilization and storage; details: 35% glucose solution; for T1M40° C. concentration: 1 month at 40° C.; for T3M40° C. concentration: 3 months at 40° C.; for T6M40° C. concentration: 6 months at 40° C., B12 value (*) is the sum of cyanocobalamin and hydroxocobalamin
Method: (§1) For testing the stability of vitamin B12 in formulation as they are typically used in parenteral nutrition, a 35% glucose solution, a 14.2% amino acid formulation such as found, for example, in Olimel N9E (Baxter), and a 20% lipid emulsion such as found in Clinoleic 20% (Baxter) were supplemented with different vitamin combinations which always included vitamin B12. KCl was added into the glucose solution to understand if it has an effect on the stability of vitamin B12. Vitamin B1 was introduced as thiamin HCl. Ascorbyl palmitate was added to the lipid emulsion formulation as a stabilizing agent due to its antioxidant properties. In addition, two separate micellar solutions (“Vit A” and “Vit B”, see Table 9) comprising certain vitamins to be assessed with regard to degradation (B3, B6, B8, B9, B12, C) but formulated with different excipients as micellization agents were tested for vitamin B12 stability. Vit A consisted of a solution of mixed micelles with ascorbyl palmitate as a potential stability enhancer. Vit B was formulated with a mix of polysorbates, PEG and sorbitol to form micelles. The micellar solutions were prepared by mixing, under high speed, a solution composed of glycocholic acid and lecithins dissolved in water. In case of Vit B, the glycocholic acid and lecithin were replaced by PEG and polysorbate. All formulations were provided in standard flexible containers and overpouched with an aluminum overpouch for subsequent sterilization. For an overview over formulations and conditions see Table 9.
(§2) All samples were submitted to two different sterilization technologies. Steam sterilization targeting a F0=8 min was used for large volumes (400/800 ml, Cycle 2) and for small volumes (25/50 ml, Cycle 1) as lined out in Table 9 above. The same samples were sterilized by water spray sterilization with a serial tower continuous sterilization equipment with two different exposure times (Cycles 3 (25 min.) and 4 (19 min.)).
(§3) The vitamin recovery was then compared between the different sterilization cycles and formulations to understand the impact of the formulation and the sterilization technology used on their respective short- and long-term stability. Therefore, after sterilization, the samples were stored at 40° C./25% RH for 6 months to evaluate the recovery of vitamin B12 at T1M, T3M and T6M. Besides, backup samples were stored at 5° C. Finally, some samples were also stored at 25° C./40% RH to provide for real time stability data.

[3] = Vitamin B12 stability in 20% lipid emulsion during sterilization and storage; details: for T1M40° C. concentration: 1 month at 40° C.; for T6M40° C. concentration: 6 months at 40° C., sum of cyanocobalamin and hydroxocobalamin
Method: as §1, §2, §3
Vitamin B12 was also considerably degraded in the lipid emulsion (Tables 12 through 15). […] The instability of vitamin B12 in the standard lipid emulsions is probably linked to the presence of ascorbyl palmitate, which is generally present as an antioxidant. It should thus be avoided in formulations according to the invention.

[4] = 25 ml, Cycle 1 steam sterilization
[5] = 800 ml, Cycle 2 steam sterilization
[6] = 800 ml, Cycle 3 water spray sterilization
[7] = 800 ml, Cycle 4 water spray sterilization

- degradation after sterilization and subsequent storage [1]: almost complete degradation
- Unsterilized T0 concentration ([2]; 25 ml (Table 10A)): 0.0062 mg/L
- T1M40° C. concentration [2, 4]: 0.0045 mg/L
- T3M40° C. concentration [2, 4]: 0.0037 mg/L
- Unsterilized T0 concentration ([2]; 800 ml (Table 10B)): 0.0062 mg/L
- Unsterilized T0 concentration ([2]; 800 ml (Table 11A)): 0.006 mg/L
- Unsterilized T0 concentration ([2]; 800 ml (Table 11B)): 0.006 mg/L
- T1M40° C. concentration [2, 5]: 0.0040 mg/L
- T3M40° C. concentration [2, 5]: 0.0036 mg/L
- Cycle 3 T0 concentration ([2]; 800 ml, Cycle 3 water spray sterilization, C0 = 25 minutes, after sterilization): 0.0051 mg/L
- T3M40° C. concentration [2, 6]: 0.0041 mg/L
- T6M40° C. concentration [2, 6]: 0.0023* mg/L
- Cycle 4 T0 concentration ([2]; 800 ml, Cycle 4 water spray sterilization, C0 = 19 minutes, after sterilization): 0.0052 mg/L
- T3M40° C. concentration [2, 7]: 0.0041 mg/L
- T6M40° C. concentration [2, 7]: 0.0031* mg/L
- Unsterilized T0 concentration ([3]; 20% lipid emulsion (Table 14)): 0.014 mg/L
- Unsterilized T0 concentration ([3]; 20% lipid emulsion (Table 15)): 0.014 mg/L
- Unsterilized T0 concentration ([3]; 20% lipid emulsion with ascorbyl palmitate (Table 12)): 0.015 mg/L
- T1M40° C. concentration ([3]; 20% lipid emulsion, Cycle 1 steam sterilization): 0.004 mg/L
- T3M40° C. concentration ([3]; 20% lipid emulsion, Cycle 1 steam sterilization, 3 months at 40° C.): <LOD
- T1M40° C. concentration ([3]; 20% lipid emulsion, Cycle 2 steam sterilization): <LOD
- Cycle 2 T0 concentration ([3]; 20% lipid emulsion, Cycle 2 steam sterilization, after sterilization): 0.005 mg/L
- T6M40° C. concentration ([3]; 20% lipid emulsion, Cycle 3 water spray sterilization (Table 14)): 0.0037* mg/L
- Cycle 3 T0 concentration ([3]; 20% lipid emulsion, Cycle 3 water spray sterilization (Table 14), after sterilization): 0.005 mg/L
- T6M40° C. concentration ([3]; 20% lipid emulsion, water spray sterilization (Table 15, head: Cycle 3)): 0.0055* mg/L
- Cycle 3 T0 concentration ([3]; 20% lipid emulsion, water spray sterilization with serial tower continuous sterilization equipment (Table 15, head: Cycle 3), after sterilization): 0.006 mg/L
Substance: cobalamin [Batch B12]
